Assay results taken from patent US20240269170A1, “Treatment of Inflammatory Conditions or Diseases” (Queen Mary University of London, priority 2021, published 2024).

Test system: mononuclear phagocytes
Assay: Phosphoproteomic analysis of GM-CSF differentiated human monocytes incubated with MCTR3 vs vehicle
Assay type: cell-based
Description: FIG. 5: MCTR3 reprograms the arthritic monocyte-derive macrophage transcriptome. A-B) Arthritis was induced and prolonged in C57BL/6 mice by administering 100 μL K/B×N serum i.p. on day 0, 2 and 9. Mice were treated on day 12 i.v. with 2×10^6 monocytes isolated from arthritic mice and incubated either with vehicle (PBS+0.1% DMSO) or 10 μM RG108, a DNMT inhibitor, for 15 min and then with a vehicle (PBS+0.1% EtOH) or 1 nM MCTR3 for 90 min (37° C.). Disease course was monitored daily by assessing A) clinical scores and B) oedema. Results are mean±SEM and expressed as percent change from day of treatment. n=10 mice per group. Statistical differences were evaluated using Two-way ANOVA. (C-E) K/B×N serum (100 μL, i.p.) was administered to mice on days 0, 2 and 9 to induce and prolong inflammatory arthritis. On day 12, mice were treated i.v. with 2×10^6 monocytes isolated from arthritic mice that were previously incubated with either vehicle (PBS+0.1% EtOH) or 1 nM MCTR3 for 90 min. Cells were isolated from paw joints on day 22, sorted for CD45^+ cells and single cell RNA sequencing was performed. […] Results are from n=4 mice per group. (F-G) Monocytes were isolated from human healthy volunteers, these cells were then incubated with GM-CSF (7 days, 37° C.) then with either Vehicle or MCTR3 (1 nM, 37° C.). Cells were lysed and the phosphoproteome determined using mass spectrometry. (F) GO Biological pathway analysis and (G) KEGG pathway analysis for proteins found to be differentially phosphorylated in cells incubated with MCTR3 when compared to those incubated with vehicle. Results are representative of cells from n=3 healthy volunteers per group
To further explore the mechanisms regulated by MCTR3 to reprogram mononuclear phagocytes we next evaluated the signaling pathways activated by MCTR3 using a phosphoproteomic approach. […] This regulation was also observed when using the Kyoto Encyclopaedia of Genes and Genomes pathway database that highlighted an enrichment of spliceosome linked proteins as well as proteins involved in mRNA surveillance by MCTR3. (FIG. 5G and Table 7). […] These findings indicate that MCTR3 promotes the reprograming of mononuclear phagocytes by both regulating epigenetic programs and protein translation to facilitate the termination of inflammation and joint protection. They also support the hypothesis that MCTR3-reprogrammed monocytes recruited into arthritic joints exert their activities via the upregulation of tissue protective pathways. […]
For evaluation of signalling pathways activated by MCTR3, monocytes were isolated from peripheral blood of healthy volunteers, incubated with GM-CSF (20 ng/ml, in RPMI containing 10% human serum) for 7 days and then incubated with MCTR3 (1 nM, in DPBS^+/+).
Phosphoproteomics experiments were performed using mass spectrometry. In brief, cells were lysed in 8M urea buffer and supplemented with phosphatase inhibitors (10 mM Na3VO4, 100 mM B-glycerol phosphate and 25 mM Na2H2P2O7 (Sigma)). Proteins were digested into peptides using trypsin. Phosphopeptides were enriched from total peptides by TiO2 chromatography. Dried phosphopeptides were dissolved in 0.1% TFA and analysed by nanoflow ultimate 3000 RSL nano instrument was coupled on-line to a Q Exactive plus mass spectrometer (Thermo Fisher Scientific). Gradient elution was from 3% to 35% buffer B in 120 min at a flow rate 300 nL/min with buffer A being used to balance the mobile phase (buffer A was 0.1% formic acid in water and B was 0.1% formic acid in acetonitrile). The spray voltage was 1.95 kV and the capillary temperature was set to 255° C. The Q-Exactive plus was operated in data dependent mode with one survey MS scan followed by 15 MS/MS scans. The full scans were acquired in the mass analyser at 375-1500m/z with the resolution of 70 000, and the MS/MS scans were obtained with a resolution of 17 500. […]

[1] = KEGG Pathway, differentially phosphorylated proteins, 1 nM MCTR3 vs vehicle
[2] = Reactome Gene Sets, differentially phosphorylated proteins, 1 nM MCTR3 vs vehicle

## CC/C=C\C/C=C\C[C@H](O)[C@@H](/C=C/C=C/C=C\C/C=C\CCC(=O)O)SC[C@H](N)C(=O)O [MCTR3, 13R-cysteinyl, 14S-hydroxy-4Z, 7Z, 9E, 11E, 13R, 14S, 16Z, 19Z-docosahexaenoic acid]
1 nM MCTR3
  phosphorylation status of SETD2, Histone deacetylase 1 and Histone deacetylase 2: regulated
  proteins involved in post-transcriptional regulation and protein translation (differential phosphorylation, GO analysis): marked regulation
[1]
  Endocytosis (ko04144) enrichment LogP: −3.117
  Fc gamma R-mediated phagocytosis (ko04666) enrichment LogP: −2.545
  Glycolysis, core module involving three-carbon compounds (M00002) enrichment LogP: −4.6043
  Guanine ribonucleotide biosynthesis IMP => GDP, GTP (M00050) enrichment LogP: −3.0343
  Herpes simplex infection (ko05168) enrichment LogP: −2.0881
  Neurotrophin signaling pathway (ko04722) enrichment LogP: −2.6025
  Notch signaling pathway (ko04330) enrichment LogP: −4.0393
  Spliceosome (hsa03040) enrichment LogP: −7.662
  Transcriptional misregulation in cancer (ko05202) enrichment LogP: −2.704
  mRNA surveillance pathway (ko03015) enrichment LogP: −3.284
  parathyroid hormone synthesis, secretion and action (hsa04928) enrichment LogP: −2.088
[2]
  Apoptotic execution phase (R-HSA-75153) enrichment LogP: −3.842
  COPII-mediated vesicle transport (R-HSA-204005) enrichment LogP: −2.4
  Diseases of signal transduction by growth factor receptors and second messengers (R-HSA-5663202) enrichment LogP: −4.434
  Estrogen-dependent gene expression (R-HSA-9018519) enrichment LogP: −2.633
  Formation of RNA Pol II elongation complex (R-HSA-112382) enrichment LogP: −4.381
  Initiation of Nuclear Envelope (NE) Reformation (R-HSA-2995383) enrichment LogP: −3.748
  Interferon gamma signaling (R-HSA-877300) enrichment LogP: −2.545
  Nervous system development (R-HSA-9675108) enrichment LogP: −3.151
  Neutrophil degranulation (R-HSA-6798695) enrichment LogP: −2.465
  Prolonged ERK activation events (R-HSA-169893) enrichment LogP: −2.935
  RHO GTPase Effectors (R-HSA-195258) enrichment LogP: −3.726
  Regulation of MECP2 expression and activity (R-HSA-9022692) enrichment LogP: −6.229
  SUMO E3 ligases SUMOylate target proteins (R-HSA-3108232) enrichment LogP: −6.009
  Signaling by NTRKs (R-HSA-166520) enrichment LogP: −5.116
  TRAF3-dependent IRF activation pathway (R-HSA-918233) enrichment LogP: −2.935
  Transcriptional Regulation by TP53 (R-HSA-3700989) enrichment LogP: −7.191
  Vesicle-mediated transport (R-HSA-5653656) enrichment LogP: −6.611
  p75 NTR receptor-mediated signalling (R-HSA-193704) enrichment LogP: −6.512
